{"source": "patent US9474780B2", "about": "“GIP and GLP-1 co-agonist compounds” (Eli Lilly and Company, priority 2015, dated 2016)", "key": {"[1]": {"experiment": "Energy metabolism in DIO mice (indirect calorimetry)", "assay_type": "in vivo, mouse", "settings": "SC every three days for 22 days, from week 2, semaglutide 30 nmol/kg", "method": "The effects on energy metabolism in DIO mice for compounds of the present invention are evaluated in 26 week old C57/B16 DIO male mice, weighing 43-50 g. Mice are individually housed in a temperature-controlled (24° C.) facility with a 12 hour light/dark cycle (lights on 22:00), and with free access to food TD95217 (Teklad) and water. After 2 weeks acclimation to the facility, mice are randomized to treatment groups (n=6/group) based on body weight so each group has similar starting mean body weight. Animals are placed in a PhenoMaster/LabMaster calorimeter (TSE Systems, Chesterfield, Mo.) for 3 days of acclimation. Vehicle control (20 mM citrate buffer at pH 7.0, 10 ml/kg), compounds of the present invention, or a long-acting GLP1 analogue, semaglutide, (30 nmol/kg) are subcutaneously administered to ad libitum fed DIO mice 30-90 minutes prior to the onset of the dark cycle every three days for 22 days. Heat and respiratory quotient (RER) are measured by indirect calorimetry as described using an open-circuit calorimetry system. RER is the ratio of the volume of CO2 produced (Vco2) to the volume of O2 consumed (Vo2). Heat is calculated with full body weight considered: VO2=FlowML*(V1+V2)/N2Ref*Animal weight*100) VCO2=FlowML*dCO2/Animal weight*100) Heat=(CVO2*VO2+CVCO2*VCO2)/1000; where CVO2=3.941; CVCO2=1.106"}, "[2]": {"experiment": "Gastric emptying in DIO mice", "assay_type": "in vivo, mouse", "settings": "30 nmol/kg SC, semi-liquid diet, 2 hours", "method": "The effects on gastric emptying in DIO mice for compounds of the present invention are evaluated in 23 week old diet-induced obese (DIO) male mice (Harlan). The mice are fasted for 16-17 hours. During the start of fasting period the mice are dosed subcutaneously with vehicle control (20 mM citrate buffer at pH 7.0); escalating doses of compounds of the present invention (3, 10, 30 and 100 nmol/kg), or a long-acting GLP1 analogue, semaglutide, (30 nmol/kg). The next day, mice are administered 0.5 ml (0.5 gram) of freshly prepared semi-liquid diet (2 minutes apart) by oral gavage. Water is removed at this time to prevent dilution of administered diet. Two hours after diet administration, mice are euthanized two minutes apart by CO2 gas. The stomach is removed while clamped at both cardiac and pyloric openings, then clamps removed and the full stomach weighed in a weigh boat. The stomach is then incised and contents removed. The stomach is washed and dried and re-weighed to assess food contents in stomach. The % gastric emptying equals 100×(1−(food remaining in stomach/food orally administered))."}, "[3]": {"experiment": "Weight loss, body composition and hepatic steatosis in DIO mice", "assay_type": "in vivo, mouse", "settings": "for Blood Glucose: Day 15", "outline": "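C57/BL6 DIO mice, individually housed at 24 °C, 12 h light/dark, food and water ad libitum; daily body weight and food intake, weight change versus pre-dose value of the same animal. Day 15: tail-vein glucose, then liver triglycerides and plasma cholesterol; ANOVA with Dunnett's test, ED50 for weight loss by non-linear fit.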"}, "[4]": {"experiment": "Plasma corticosterone in Sprague Dawley rats", "assay_type": "in vivo, rat", "method": "Plasma corticosterone levels are evaluated using Sprague Dawley Rats (Harlan, Indianapolis), weighing approximately 220 g and acclimated for at least 72 hours before handling. The rats are then dosed with vehicle (20 mM citrate buffer, pH 7), semaglutide (10 nmol/kg), or compounds of the present invention at 3, 10 or 30 nmol/kg s.c. with 8 rats per dose group. The rats are decapitated 16 hours later. Blood is collected into EDTA tubes on ice, then centrifuged 5 minutes at 8000 RPM in a Eppendorf 5402 tabletop centrifuge. Plasma is stored at −80° C. until analysis.\nFor corticosterone analysis, corticosterone standards (Sigma, 27840) are prepared by serial dilutions in HPLC-grade methanol, H2O and the addition of 5% charcoal stripped rat serum (Bioreclamation, RATSRM-STRPD-HEV). Rat plasma samples are diluted with PBS, precipitated with cold methanol, incubated for 20 minutes at −20° C., and then centrifuged at 14,000 RPM with an Eppendorf 5417R at 4° C. Supernatants are extracted, evaporated under a stream of N2 gas, and reconstituted in MeOH/H2O (1:1) solution."}, "[5]": {"experiment": "Rat in vivo insulin secretion following intravenous glucose (IVGTT)", "settings": "s.c. 16 hour prior to glucose", "outline": "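Male Wistar rats dosed s.c. with vehicle or 0.1–10 nmol/kg 16 h before glucose, then fasted and anesthetized with pentobarbital i.p. (65 mg/kg). Glucose ([…]) given after a time-zero bleed; plasma sampled at 2, 4, 6, 10, 20, 30 min. Glucose measured by analyzer, insulin by MSD immunoassay.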"}, "[6]": {"experiment": "Dose potency projection: rat ivGTT exposure response Emax model", "assay_type": "in vivo", "settings": "single SC dose, ivGTT 16 hours post-dosage", "method": "The intravenous glucose tolerance test (ivGTT) in the rat is used to estimate relative potency of compounds of the present invention in comparison to semaglutide. […] Exposure is measured at the time of the ivGTT, and for exposure response modeling, the insulin AUC in response to the ivGTT is used as the primary endpoint. […] Both data sets are fit simultaneously and E0 and Emax values are constrained to be the same for both compounds. Only ED50 values are fit separately for the compounds."}}, "note": "Marks after values point to notes of the source that are not given here.", "data": [{"substance": "semaglutide [reference compound]", "values": [{"measurement": "increase in metabolic rate compared to the control group", "setting": "[1]", "result": "no effect on metabolic rate"}, {"measurement": "Percent Gastric Emptying", "setting": "[2]", "result": "30.56 +/− 7.53** %"}, {"measurement": "% Change from starting body weight", "setting": "[3]; Table 8, 10 nmol/kg", "result": "−12.36 ± 1.00", "unit": "%"}, {"measurement": "% Change from starting fat mass", "setting": "[3]; Table 8, 10 nmol/kg", "result": "−18.21 ± 2.24", "unit": "%"}, {"measurement": "% Change from starting body weight", "setting": "[3]; Table 8, 30 nmol/kg", "result": "−14.20 ± 1.01", "unit": "%"}, {"measurement": "% Change from starting fat mass", "setting": "[3]; Table 8, 30 nmol/kg", "result": "−21.90 ± 2.07", "unit": "%"}, {"measurement": "% Change from starting body weight", "setting": "[3]; Table 8, 100 nmol/kg", "result": "−19.30 ± 1.38", "unit": "%"}, {"measurement": "% Change from starting fat mass", "setting": "[3]; Table 8, 100 nmol/kg", "result": "−33.51 ± 3.30", "unit": "%"}, {"measurement": "% Change from starting body weight", "setting": "[3]; Table 9, 30 nmol/kg", "result": "−17.03 ± 0.98", "unit": "%"}, {"measurement": "% Change from starting fat mass", "setting": "[3]; Table 9, 30 nmol/kg", "result": "−35.94 ± 4.09", "unit": "%"}, {"measurement": "Plasma Cholesterol", "setting": "[3]; Table 11, 10 nmol/kg", "result": "226.8 ± 13.86", "unit": "mg/dL"}, {"measurement": "Plasma Triglycerides", "setting": "[3]; Table 11, 10 nmol/kg", "result": "27.36 ± 3.56", "unit": "mg/dL"}, {"measurement": "Blood Glucose", "setting": "[3]; Table 11, 10 nmol/kg", "result": "147.6 ± 6.13", "unit": "mg/dL"}, {"measurement": "Plasma Cholesterol", "setting": "[3]; Table 11, 30 nmol/kg", "result": "229.8 ± 10.96", "unit": "mg/dL"}, {"measurement": "Plasma Triglycerides", "setting": "[3]; Table 11, 30 nmol/kg", "result": "27.9 ± 6.01", "unit": "mg/dL"}, {"measurement": "Blood Glucose", "setting": "[3]; Table 11, 30 nmol/kg", "result": "146.8 ± 8.43", "unit": "mg/dL"}, {"measurement": "Plasma Cholesterol", "setting": "[3]; Table 11, 100 nmol/kg", "result": "218.4 ± 18.70", "unit": "mg/dL"}, {"measurement": "Plasma Triglycerides", "setting": "[3]; Table 11, 100 nmol/kg", "result": "36.46 ± 5.34", "unit": "mg/dL"}, {"measurement": "Blood Glucose", "setting": "[3]; Table 11, 100 nmol/kg", "result": "134.3 ± 9.22", "unit": "mg/dL"}, {"measurement": "Liver Triglycerides", "setting": "[3]; Table 12, 30 nmol/kg", "result": "67.63 ± 23.40", "unit": "mg/g tissue"}, {"measurement": "Plasma Cholesterol", "setting": "[3]; Table 12, 30 nmol/kg", "result": "161.0 ± 13.92", "unit": "mg/dL"}, {"measurement": "Blood Glucose", "setting": "[3]; Table 12, 30 nmol/kg", "result": "136.3 ± 3.81", "unit": "mg/dL"}, {"measurement": "Corticosterone, Mean", "setting": "[4]; 10 nmol/kg s.c., 16 hours", "result": 274.57, "unit": "ng/mL"}, {"measurement": "increase in plasma corticosterone levels over control", "setting": "[4]; Example 1 at 3, 10, 30 nmol/kg, semaglutide 10 nmol/kg", "result": "approximately 4 ×"}, {"measurement": "% max increase of insulin AUC", "setting": "[5]", "result": "231 +/− 13%"}, {"measurement": "ED50 for insulin, rat IVGTT", "setting": "[5]", "result": 0.70, "unit": "nmol/kg"}, {"measurement": "ED50 (Emax model, insulin AUC in ivGTT)", "setting": "[6]", "result": "0.6 ± 0.2", "unit": "nmol/kg"}]}]}
